Assay results as given in patent US20110201608A1 (BOEHRINGER INGELHEIM INTERNATIONAL GMBH, priority 2008, published 2011).

What follows are compounds tested against T1, Recombinant human Syk (GST-Syk kinase fusion protein) (Homo sapiens, UniProt P43405) (assay: Syk Kinase Test (Kinase Glo Luminescence Kinase test)). Conditions: 1 μM test substance; negative control (no kinase) = 100% inhibition, positive control (no test substance) = 0% inhibition.
T1 construct: made in house
Type: biochemical
Method: The catalytic activity of the GST-Syk kinase fusion protein was determined using the Kinase Glo® Luminescence Kinase test of Messrs Promega. In this homogeneous test the amount of ATP remaining after the kinase reaction has been carried out is quantified by a luciferin-luciferase reaction using luminescence. The luminescence signal obtained correlates with the amount of ATP still present and thus correlates inversely with the activity of the protein kinase.
The test substances were dissolved in 100% DMSO at a concentration of 10 mM and diluted in DMSO to a concentration of 1 mM. […] GST-Syk was diluted to 6.0 nM in the test buffer and 10 μl of this dilution were used in the kinase test (final concentration of Syk=4 nM in a total volume of 15 μl).
Positive controls are the reaction mixtures that contain no test substance; negative controls are reaction mixtures that contain no kinase.
After 60 minutes, 10 μl Kinase-Glo® solution (Promega, Cat. # V6712) (heated to ambient temperature) are added to each well and incubation is continued for a further 15 minutes at ambient temperature.
The output file of the “MicroBeta TRILUX” is a text file that contains the well number and measurements obtained. […] Then from this the % inherent value for the measurement of each substance concentration was calculated using an “MS-Excel-VB macro”. […] The IC50 values were calculated from the % inhibition values using “GraphPadPrism” software (Version 5) (GraphPad Software Inc.).

| Compound | % INHB SYK at 1 μM [%] |
| --- | --- |
| c1cnc2cc(-c3ccc(N4CCOCC4)cc3)nc(Nc3ccc4cn[nH]c4c3)c2c1 [Example 1, 5-[(1H-indazol-6-yl)amino]-7-(4-morpholinophenyl)-[1,6]naphthyridine] | 82.0 |
| NC(=O)c1cccnc1Nc1nc(-c2ccc(N3CCOCC3)cc2)cc2ncccc12 [Example 2, 2-[7-(4-morpholin-4-yl-phenyl)-[1,6]naphthyridin-5-ylamino]-nicotinamide] | 72.6 |
| CNc1nc(-c2ccc(N3CCOCC3)cc2)cc2ncccc12 [Example 3] | 101.8 |
| OCCCCOc1nc(-c2ccc(N3CCOCC3)cc2)cc2ncccc12 [Example 4, 4-[7-(4-morpholinophenyl)-[1,6]naphthyridin-5-yloxy]-butan-1-ol] | 94.4 |
| CN[C@H]1CC[C@@H](Nc2nc(-c3ccc(N4CCOCC4)cc3)cc3ncccc23)CC1 [Example 9, N-methyl-N′-[7-(4-morpholin-4-yl-phenyl)-[1,6]naphthyridin-5-yl]-cyclohexane-1,4-diamine] | 86.7 |
| COc1cc(-c2cc3ncccc3c(NC[C@@H]3CCNC3)n2)ccc1N1CCOCC1 [Example 10] | 98.6 |
| O[C@H]1CC[C@@H](Nc2nc(-c3ccc(N4CCOCC4)cc3)cc3ncccc23)CC1 [Example 62, 4-[7-(4-morpholin-4-yl-phenyl)-[1,6]naphthyridin-5-ylamino]-cyclohexanol] | 76.8 |
| c1cnc2cc(-c3ccc(N4CCOCC4)cc3)nc(NCC3CNCCO3)c2c1 (stereo not shown) [Example 63] | 85.4 |
| Cc1cc(-c2cc3ncccc3c(OC[C@H]3CCCNC3)n2)ccc1N1CCOCC1 [Example 66, (S)-4-(2-methyl-4-(5-(piperidine-3-ylmethoxy)-[1,6]naphthyridin-7-yl)phenyl)morpholine] | 102.8 |
| CCOc1nc(-c2ccc(N3CCOCC3)cc2)cc2ncccc12 [Example 79, 5-Ethoxy-7-(4-morpholin-4-yl-phenyl)-[1,6]naphthyridine] | 82.9 |
| OCC#Cc1nc(-c2ccc(N3CCOCC3)cc2)cc2ncccc12 [Example 82, 3-[7-(4-morpholin-4-yl-phenyl)-[1,6]naphthyridin-5-yl]-prop-2-yn-1-ol] | 87.1 |
| CCNC(=O)NC1CN(c2nc(-c3ccc(N4CCN(C)CC4)cc3)cc3ncccc23)C1 [Example 92, 1-ethyl-3-(1-{7-[4-(4-methyl-piperazin-1-yl)-phenyl]-[1,6]naphthyridin-5-yl}-azetidin-3-yl)-urea] | 77.3 |
| CCNC(=O)N1CCCC1CNc1nc(-c2ccc(N3CCN(C)CC3)cc2)cc2ncccc12 (stereo not shown) [Example 93, 2-({7-[4-(4-methyl-piperazin-1-yl)-phenyl]-[1,6]naphthyridin-5-ylamino}-methyl)-pyrrolidin-1-carboxylic acid ethylamide] | 91.5 |
| NC(=O)N1CCN(c2nc(-c3ccc(N4CCOCC4)cc3)cc3ncccc23)CC1 [Example 98, 4-[7-(4-morpholin-4-yl-phenyl)-[1,6]naphthyridin-5-yl]-piperazine-1-carboxylic acid amide] | 86.8 |
| NC(=O)C1CCN(c2nc(-c3ccc(N4CCOCC4)cc3)cc3ncccc23)C1 (stereo not shown) [Example 107, 1-[7-(4-morpholin-4-yl-phenyl)-[1,6]naphthyridin-5-yl]-pyrrolidine-3-carboxylic acid amide] | 95.3 |
| CC(=O)N[C@H]1CC[C@@H](Nc2nc(-c3ccc(N4CCOCC4)cc3)cc3ncccc23)CC1 [Example 113, N-{4-[7-(4-morpholin-4-yl-phenyl)-[1,6]naphthyridin-5-ylamino]-cyclohexyl}-acetamide] | 94.7 |
| c1ccc(-c2nc(-c3ccc(N4CCOCC4)cc3)cc3ncccc23)cc1 [Example 132, (4-(5-phenyl-1,6-naphthyridin-7-yl)phenyl)morpholine] | 55.2 |
| CCc1nc(-c2ccc(N3CCOCC3)cc2)cc2ncccc12 [Example 140, (4-(5-ethyl-[1,6]naphthyridin-7-yl)phenyl)morpholine] | 43.3 |
| C#Cc1nc(-c2ccc(N3CCOCC3)cc2)cc2ncccc12 [Example 142, (4-(5-ethynyl-[1,6]naphthyridin-7-yl)phenyl)morpholine] | 70.3 |
